Assay: decomposition during emulsification at 70° C.
Type: physicochemical
Details: without antioxidants and weak acids
Method: The process of microencapsulation is performed adding the oil phase to the first water phase under high shear stress, being emulsified at 70° C.

Substance: abamectin
- decomposition during emulsification: 5-25%

Reference: patent US9320270B2, “Method of field application of natural pesticides with reduced toxicity and high efficacy by means of microencapsulation” (priority 2009, dated 2016)
